Article PMC6045410 (ACS Omega, 2017)

Target: FabG4 (β-ketoacyl CoA reductase, EC 1.1.1.100) (Mycobacterium tuberculosis, UniProt I6Y778)

Compound: COc1ccc(C(c2ccc(OCCN(C(C)C)C(C)C)cc2)c2cccs2)cc1 (racemic) [S-S006-830, diisopropyl-(2-{4-[(R,S)-(4-methoxy-phenyl)-thiophen-2-yl-methyl]-phenoxy}-ethyl)-amine (printed for the racemate S006-830)]
- affinity pull-down on compound-linked agarose beads, 2-DE, LC-MS-MS: The pull-down of FabG4 by drug-affinity beads along with its overexpression by S-S006-830-resistant Mtb
